# Data from patent US20240207403A1, “PERSONALIZED IMMUNOTHERAPY USING INTESTINAL METABOLITES” (Evolve Biosystems, Inc., priority 2021, published 2024).
# Assays:
# naïve CD4+ T-cells = assay: In vitro polarization of naïve CD4+ T-cells with fecal water, ILA or IFNβ, read out by targeted sc-mRNA-seq; format: cell-based, human; settings: for LGALS1 (Galectin-1) in Th0, Th2 and Th17 cells: ILA alone (1 mM) during polarization
# Procedure: To evaluate the cellular states of polarized T-cells, the inventors applied a targeted multiomics approach quantifying 259 mRNA molecules with known functions in T-cells and 10 surface proteins detected by oligo-coupled antibodies (Abseq™, Rhapsody™, BD Biosciences) (Mair et al., 2020).
# T-cell polarization experiments. PBMC derived CD3 CD4 CD45RA″ naïve T-cells (CD8/14/19/56 negative) into an enriched culture medium including RPMI 1640+10% FBS+NEAA+1% Pen-strep+55 μM β-mercaptoethanol. Cells are added at a concentration of 2×10^5 cells/ml and pre-washed and resuspended 2.5 ml T-Activator Dynabeads are added to obtain a bead:cell ratio of 1:2. One milliliter of bead/cell suspension was added to 24-well plate and the following polarizing supplements Th0: No cytokines, Th1: IL-12 (50 nanogram (ng)/ml), Anti-human IL-4 antibody (1 μg/ml) Th2: IL-4 (10 ng/ml), Anti-human IFN-γ antibody (1 μg/ml), Th17: IL-6 (50 ng/ml), IL-23 (20 ng/ml), IL-1B (10 ng/ml), TGF-β1 (5 ng/ml), Anti-hum IL-4 (1 μg/ml), Anti-human IFN-γ antibody (1 μg/ml), iTreg: TGF-β1 (5 ng/ml), IL-2 (10 ng/ml) IFN-β: IFN-β (10 ng/ml). Cells are incubated at 37 °C, 5% CO2 humidified incubator for 5 days and harvested.
# Targeted transcriptome and protein by BD Rhapsody single cell RNA Sequencing. Polarized T cells in each condition were labeled using BD Single-Cell Multiplexing Kit and BD AbSeq Ab-Oligos reagents strictly following the manufacturers protocol (BD Biosciences). Briefly, cells from each experiment condition were labelled with each sample tag and pooled 18 AbSeqAb-Oligos. Each sample was then washed twice, counted and resuspended in cold BD SampleBuffer, then calculated the cell number in each sample, then pooled the required number of cells from each sample to get approximately 20,000 cells in 620 μl for each cartridge (around 9 samples for each cartridge). After priming the nanowell cartridges, the pooled sample was loaded onto BDRhapsody cartridges and incubated at room temperature. Cell Capture Beads were prepared and then loaded onto the cartridge. According to the manufacturers protocol, cartridges were washed, cells were lysed, and Cell Capture Beads were retrieved and washed prior to performing reverse transcription and treatment with Exonuclease I. cDNA Libraries were prepared using mRNA Targeted, Sample Tag, and BD AbSeq Library Preparation with the BD Rhapsody Targeted mRNA and AbSeq Amplification Kits and protocol. […] Quality and quantity of PCR products were determined by using an Agilent 2100 Bioanalyzer and Qubit Fluorometer using the Qubit dsDNA HS Kit (ThermoFisher). […] Quality of final libraries was assessed by using Agilent Bioanalyzer and quantified using a Qubit Fluorometer. […]
# [1] = system: Aryl hydrocarbon Receptor (AhR); settings: bifidobacteria-derived ILA; cited from earlier work
# [2] = target: hydrocarboxylic acid receptor 3 (HCAR3) (Homo sapiens, UniProt P49019); settings: bifidobacteria-derived ILA; cited from earlier work
# hydrocarboxylic acid receptor 3 (HCAR3), sequence (P49019 whole entry): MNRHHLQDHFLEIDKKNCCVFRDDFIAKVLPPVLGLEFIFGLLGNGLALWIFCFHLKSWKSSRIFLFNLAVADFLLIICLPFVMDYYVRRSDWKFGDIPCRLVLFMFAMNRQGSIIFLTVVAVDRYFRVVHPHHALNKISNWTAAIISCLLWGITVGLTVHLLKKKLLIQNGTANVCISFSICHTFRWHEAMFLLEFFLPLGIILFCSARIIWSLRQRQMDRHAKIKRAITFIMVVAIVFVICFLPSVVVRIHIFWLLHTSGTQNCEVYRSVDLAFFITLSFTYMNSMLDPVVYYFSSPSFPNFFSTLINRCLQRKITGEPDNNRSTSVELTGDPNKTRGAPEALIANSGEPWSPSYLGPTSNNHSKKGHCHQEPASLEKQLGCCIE
# [3] = ILA alone (1 mM) instead of fecal water
smiles,measurement,setting,value
"O=C(O)C(O)Cc1c[nH]c2ccccc12 (stereo not drawn) [ILA, Indole-3-lactic acid]","LGALS1 (Galectin-1) in Th0, Th2 and Th17 cells",naïve CD4+ T-cells,strongly upregulated
same,"LGALS1 (Galectin-1) in Th0, Th2 and Th17 cells",naïve CD4+ T-cells; listed as indole-3-lactic acid,upregulated
same,"CXCR3 mRNA in Th0, Th2 and Th17 cells",naïve CD4+ T-cells; [3],upregulated
same,"granzyme B mRNA in Th0, Th2 and Th17 cells",naïve CD4+ T-cells; [3],upregulated
same,binding to AhR,[1],bind
same,binding to HCAR3,[2],bind
